The text below walks through data of patent publication US20220280513A1, “ENHANCING THE ANTIVIRAL EFFICACY OF RNA VIRUS INHIBITION BY COMBINATION WITH MODULATORS OF PYRIMIDINE METABOLISM” (The Board of Trustees of the Leland Stanford Junior …, priority 2019, published 2022).

Where two headings read alike, the source gives them in different places.

One series concerns the target T1, recombinant human UCK2 (Homo sapiens, UniProt Q9BZX2).
T1 construct: 6xHis (C); made in house; host or cells: E. coli BL21(DE3)
T1 sequence (Q9BZX2 1-261): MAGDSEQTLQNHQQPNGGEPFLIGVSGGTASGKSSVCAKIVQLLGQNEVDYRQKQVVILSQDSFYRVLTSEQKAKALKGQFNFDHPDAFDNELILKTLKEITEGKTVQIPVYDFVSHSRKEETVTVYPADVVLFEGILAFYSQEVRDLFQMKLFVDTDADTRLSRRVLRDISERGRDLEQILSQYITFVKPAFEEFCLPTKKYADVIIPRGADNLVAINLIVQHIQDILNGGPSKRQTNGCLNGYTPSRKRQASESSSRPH
Nature of the series: In vitro enzyme activity assay with recombinant human UCK2 (PK/LDH-coupled, UV 340 nm). Type of series: biochemical. Conditions: for UCK2 substrate or not (ATP consumption): 250 μM analog in the presence of 50 μM uridine. An excerpt:
(§1) In order to guide our SAR studies, we developed an enzymatic assay to evaluate the inhibitory effect of each CPU analog against recombinant human UCK2, which was expressed and purified in E. coli. A continuous assay system was optimized by coupling UCK2 activity to the pyruvate kinase (PK) reaction, which in turn was coupled to lactate dehydrogenase (LDH). Overall reaction progress was continuously monitored by detecting the UV absorption change at 340 nm, which was correlated with the ATP consumption by UCK2. The effect of 250 μM of each CPU analog on UCK2 activity was evaluated in the presence of 50 μM uridine. […] We then individually measured the steady state kinetic parameters of UCK2 using uridine, CPU and 5-F-CPU as substrates. Their KM values were 86, 25, and 41 μM, and their kcat/KM values were 2.6×10^5, 1.5×10^5, and 7.3×10^4 s^−1 M^−1 (FIG. 5B).
(§2) Cloning, expression and purification of recombinant human UCK2 and CMPK1: Uridine cytidine kinase 2 (UCK2) was cloned into the pET-21a(+) vector using Ndel and Notl as restriction sites. […] The resulting plasmid was transformed into E. coli BL21(DE3) cells by electroporation, recovered in SOC at 37° C. for 1 h and plated onto LB agar plates with kanamycin overnight at 37° C. A single, isolated colony was inoculated into 30 mL LB supplemented with 50 μg/mL kanamycin and grown at 37° C. with shaking for 15 h. The next day, these cells were used to inoculate 1 L autoclaved LB with 50 μg/mL kanamycin. The flask was shaken at 37° C. When an optical density (OD600) of 0.7 was reached, protein expression was induced with 0.5 mM isopropyl β-D-1-thiogalactopyranoside (IPTG). The temperature was changed to 18° C. and flasks were shaken for an additional 15 h. The cell pellets were collected by spinning the media at 5000 rpm for 10 min. The pellets obtained were frozen by liquid nitrogen and stored in −80° C. for protein purification. Cell pellets were thawed and resuspended in lysis buffer containing Tris (40 mM, pH 7.5), NaCl (10 mM), imidazole (10 mM), DTT (1 mM). Cells were lysed by sonication and centrifuged at 25,000 g for 1 h. The supernatant was incubated with a slurry of Ni-NTA resin for 1 h at 4° C. and loaded onto a column. The nickel column wash buffer was Tris (40 mM, pH 7.5), NaCl (10 mM), DTT (1 mM) and each wash step contained increasing concentrations of imidazole (10, 50, or 250 mM). After SDS-PAGE confirmation of the protein fractions, protein was further purified using fast protein liquid chromatography (FPLC) using buffer A (50 mM Tris-HCl pH 8, 1 mM dithiothreitol (DTT), 10% glycerol) and elution buffer B (50 mM Tris-HCl pH 8, 1mM dithiothreitol (DTT), 10% glycerol with 500 mM NaCl) with changing gradient over a 20 minute from 2% to 100% Buffer B. FPLC eluents containing the protein was concentrated using Am icon centrifugal filter with 3K cut-off and the enzyme was stored in storage buffer (50 mM Tris-HCl pH 7.5, 10% glycerol). Human cytidine monophosphate kinase 1 (CMPK1) was purified as previously described (Deans et al., 2016).
(§3) In vitro enzyme activity assays with recombinant human UCK2: To continuously monitor reaction progress spectrophotometrically, ATP hydrolysis was coupled to NADH oxidation via pyruvate kinase (PK) and lactate dehydrogenase (LDH). Reactions were conducted at room temperature in 100 μL in 96-well plates (Greiner Bio-One, UV-Star, Half Area). Mixtures contained 20 mM HEPES (pH 7.2), 100 mM KCl, 2 mM MgCl2, 300 μM ATP, 0-500 μM uridine, 0-500 μM CPU analogs, 10 nM UCK2, 1 mM phosphoenolpyruvate, 500 μM NADH and 20 units/mL of PK and LDH. Progress was monitored in the linear region using a Biotek Synergy HT and kinetic and inhibition constants were determined using GraphPad Prism 7 (GraphPad Software).

In a further series the test system is DENV-2 virus. Nature of the series: DENV antiviral assay, DENV-Luc replication in A549 cells (FIGS. 8 and 9). Type of series: cell-based, dengue serotype 2 (DENV-2) strain 16681. As to the method:
DENV-Luc reporter virus generation: The design of the pDENV-Luc infectious clone derived from dengue serotype 2 (DENV-2) strain 16681 was described in detail by Marceau et al (Marceau et al., 2016). The plasmid was linearized with Xbal and in vitro transcribed into the genomic RNA of DENV-Luc virus using the T7 Megascript Kit (Ambion) in the presence of m7G(5′)ppp(5′)G RNA Cap Structure Analog (NEB). 5 μg DENV-Luc RNA was electroporated into 2×10^6 Vero cells. The transfected cells were resuspended with Dulbecco's modified Eagle's medium (DMEM; Invitrogen) with 10% FBS and 100 U/ml penicillin-streptomycin and transferred into a T-175 flask incubated at 37° C. with 5% CO2. Supernatants were collected and replenished with fresh medium every 24 h from day 17 to 24 post-transfection, pooled together, clarified by centrifugation and stored in aliquots at −80° C. The amount of infectious DENV-Luc virus in the stock was titrated using the TCID50 assay and calculated by the Spearman & Kärber algorithm as described previously (Hierholzer and Killington, 1996).
DENV antiviral assays (For FIGS. 8 and 9): A549 cells were plated overnight at 5,000 cells/well in 96-well plates in complete DMEM and incubated for 24 h at 37° C. Cells were then treated with pyrimidine de novo synthesis inhibitors, and/or salvage inhibitors, and/or R1479 in DMEM supplemented with 20 μM uridine. Four hours after drug addition, cells were infected with DENV-2 virus at a MOI=0.1. After 72 h, DENV-Luc replication was monitored by the production of Renilla luciferase, which was measured using the Renilla-Glo Luciferase Assay System (Promega) according to the specifications of the manufacturer. For the accompanying cell viability assay, A549 cells were seeded at 5,000 cells/well in 96-well plates in complete DMEM and incubated for 24 h at 37° C. Cell were then treated with pyrimidine de novo synthesis inhibitors, and/or salvage inhibitors, and/or R1479 in DMEM supplemented with 20 μM uridine. Following 48 h treatment, cell viability was monitored by ATP levels, which was measured using the CellTiter-Glo Luciferase Assay System (Promega) according to the specifications of the manufacturer.

Substrate in series [1]: O=c1ccn([C@@H]2C=C(CO)[C@@H](O)[C@H]2O)c(=O)[nH]1
The experiment in a line: In vitro enzyme activity assay with recombinant human UCK2 (PK/LDH-coupled, UV 340 nm). Conditions: other: steady state kinetic parameters of UCK2 with the compound as substrate. Format: biochemical.
Text: as §1, §2, §3

Substrate in series [2]: O=c1ccn([C@@H]2O[C@H](CO)[C@@H](O)[C@H]2O)c(=O)[nH]1
Described as above. Type of series: biochemical. The settings on record: other: steady state kinetic parameters of UCK2 with the compound as substrate.
Text: as §1, §2, §3

Substrate in series [3]: O=c1[nH]c(=O)n([C@@H]2C=C(CO)[C@@H](O)[C@H]2O)cc1F
The description is as above. Conditions: other: steady state kinetic parameters of UCK2 with the compound as substrate. Type of series: biochemical.
Text: as §1, §2, §3

As to `O=c1[nH]c(=O)n([C@@H]2C=C(CO)[C@@H](O)[C@H]2O)cc1F` [5-F-CPU, 1-((1R,4R,5S)-4,5-dihydroxy-3-(hydroxymethyl)cyclopent-2-en-1-yl)-5-fluoropyrimidine-2,4(1H,3H)-dione], the “UCK2 substrate or not (ATP consumption)” value on recombinant human UCK2 was “substrates of UCK2”. Further, the “rate of UMP synthesis” value at recombinant human UCK2 (added to assay mixture containing UCK2, uridine (50 μM) and ATP) was “dose-dependent decrease”.
On to `CC1=C[C@@H](n2ccc(=O)[nH]c2=O)[C@H](O)[C@@H]1O` [5′-deoxy-CPU, 1-((1R,4R,5S)-4,5-dihydroxy-3-methylcyclopent-2-en-1-yl)pyrimidine-2,4(1H,3H)-dione], for which the “UCK2 substrate or not (ATP consumption)” value at recombinant human UCK2 is reported as “inhibitors but not substrates”. In addition, the Ki at recombinant human UCK2 (competitive inhibitors of UCK2, Lineweaver-Burk analysis) turned out to be 230 µM.
On to `[N-]=[N+]=N[C@]1(CO)O[C@@H](n2ccc(N)nc2=O)[C@H](O)[C@@H]1O` [R1479, 4′-azidocytidine], for which the “influence of GSK983 alone on the antiviral activity of R1479” value in the series on DENV-2 virus (1 μM GSK983 added, no CPU, 20 μM uridine) is “negligible influence”. For the same molecule, the 50% effective concentration (EC50) in the series on DENV-2 virus (Dengue virus, DENV2, A549, 20 μM uridine, without GSK983 and CPU, read-out: EC50, inhibition of dengue virus replication, R1479 as single agent) was around 35 µM; in the series with DENV-2 virus (Dengue virus, DENV2, A549, in the presence of 250 μM CPU and 1 μM GSK983, 20 μM uridine, read-out: EC50 of R1479 in combination), at most 8 µM; with DENV-2 virus (in the presence of 250 μM CPU and 1 μM GSK983, 20 μM uridine, read-out: EC50 of R1479 in combination) it was around 8 µM.

B1: recombinant human UCK2 (Homo sapiens) (protein)
chain: T1 sequence (Q9BZX2 1-261)
notes: 6xHis (C); made in house; host or cells: E. coli BL21(DE3)
Consider B1, for which the Km in series [1] was 25 µM; in series [2], 86 µM; in series [3] it was 41 µM. Besides, the specificity constant (kcat/Km) in series [1] is 150000 M⁻¹ s⁻¹; in series [2] it was 260000 M⁻¹ s⁻¹; in series [3] it was 73000 M⁻¹ s⁻¹.

As usually defined, the Ki is the dissociation constant of the complex between target and ligand, obtained from inhibition or displacement. What is called EC50 is the midpoint of the concentration-response curve. Broadly, the Km is the substrate concentration at which the rate is half of its maximum. As a reminder, the kcat/Km is the turnover number divided by the Michaelis constant.
